According to US10844071B2, “Substituted [1,2,3]triazolo[4,5-d]pyrimidines that lower stress-induced p-tau” (BUCK INSTITUTE FOR RESEARCH ON AGING, priority 2015, dated 2020):
≈ marks a conversion by molar mass, not a printed value. Entries after “also recorded” stand apart in the source; their conditions may differ. Like-named read-outs stand apart in the source and are kept apart here.

Columns and labels:
J20 mice [1] = assay: J03 pilot study #2 in J20 mice (oral, longer duration); assay type: in vivo, mouse; settings: oral delivery
Description: (§1) Animal experiments were performed using J20 mice. The J20 mouse is a model of for Alzheimer's disease. This model overexpresses human APP with two mutations linked to familial Alzheimer's disease (the APP KM670/671NL (Swedish) and […] (Indiana) mutations).
Based on these promising results, the study was repeated (pilot study #2) with oral delivery and a longer duration.

Solubility in DMSO = assay type: physicochemical; settings: organic solvent or mixture, read-out: Solubility
CRF1 = molecular target: T1, CRF1 (Homo sapiens, UniProt P34998); assay: CRF1 binding (Ki)
T1 sequence (P34998 24-415): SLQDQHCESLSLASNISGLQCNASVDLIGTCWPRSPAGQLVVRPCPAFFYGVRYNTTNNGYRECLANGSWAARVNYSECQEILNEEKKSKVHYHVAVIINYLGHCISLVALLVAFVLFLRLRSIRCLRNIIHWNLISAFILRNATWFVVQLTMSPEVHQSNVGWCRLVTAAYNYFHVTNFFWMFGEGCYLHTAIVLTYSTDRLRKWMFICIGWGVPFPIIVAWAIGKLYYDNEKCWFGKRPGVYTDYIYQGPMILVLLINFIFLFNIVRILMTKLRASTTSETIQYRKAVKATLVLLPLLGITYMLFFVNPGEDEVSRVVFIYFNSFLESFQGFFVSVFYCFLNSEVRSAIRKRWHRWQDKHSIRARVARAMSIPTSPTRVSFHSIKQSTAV

J20 mice [2] = assay: J17 pilot study in J20 mice (oral, 28 days); assay type: in vivo, mouse
Description: as §1
In a J17 pilot study (#1 pilot study) male and female J20 mice were housed singly and treated with J17 at 10 mkd by oral delivery for 28 days. […]

[3] = In vivo pharmacokinetics, brain and plasma levels; design: species or system mouse
SH-SY5Y cells [4] = assay: Primary screen in SH-SY5Y cells (tau, p-tau); assay type: cell-based
Description: (§2) As described below, in vitro studies were performed using SHSY-5Y cells. These cells are a useful neurological model that differentiate into cells with morphological and biochemical characteristics of mature neurons including mature isoforms of tau.
However, J04 did lower p-tau to the same level as J03 and significant may not have been reached due to low N #.

CRFR2 = molecular target: T2, CRFR2 (Homo sapiens, UniProt Q13324); assay: CRFR2 binding (Ki)
T2 sequence (Q13324 1-411): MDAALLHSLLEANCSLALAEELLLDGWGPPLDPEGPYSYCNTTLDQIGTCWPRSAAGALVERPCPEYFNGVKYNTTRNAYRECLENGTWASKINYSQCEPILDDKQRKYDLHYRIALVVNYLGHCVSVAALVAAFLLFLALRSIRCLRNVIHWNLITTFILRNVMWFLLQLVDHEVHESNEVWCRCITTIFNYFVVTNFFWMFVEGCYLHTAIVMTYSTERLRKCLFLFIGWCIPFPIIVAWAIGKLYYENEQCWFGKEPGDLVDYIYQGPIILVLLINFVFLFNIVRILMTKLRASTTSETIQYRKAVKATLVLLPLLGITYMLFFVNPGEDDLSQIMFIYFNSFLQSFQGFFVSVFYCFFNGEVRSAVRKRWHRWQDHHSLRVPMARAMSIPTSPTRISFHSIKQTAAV

PAMPA = assay type: in vitro ADME; settings: Tertiary
SH-SY5Y cells [5] = assay: Secondary screen in SH-SY5Y cells with CRF stimulation (tau, p-tau, sAPPα); assay type: cell-based
Description: as §2
In an initial study, SHSY-5Y cells were cultured without serum to induce differentiation and increase tau expression. […] The increases were proportional and both were about 50%. J03 (FIG. 4A) reduced the CRF-induced tau increases more than the p-tau increases. The increase in p-tau with CRF was expected, but the increase in tau less predictable as CRF reduces neuronal differentiation (see Chen et al. (2004) Proc. Natl. Acad. Sci. USA, 101(44): 15782-15787), however, it can increase tau accumulation.

p-tau = assay: Cortisol-induced (stress-induced) p-tau increase in vitro; assay type: cell-based
From the text: To identify therapeutic candidates, a clinical library of CRF-1R inhibitors to was screened to determine their effects on cortisol-induced p-tau increases. […] J03 was shown specifically to inhibit stress-induced p-tau increases by cortisol in vitro.

J20 mice [6] = assay: J03 pilot study #1 in J20 mice (SQ, 12 days); assay type: in vivo, mouse; settings: SQ 10 mkd
Description: as §1
In pilot study #1, J20 mice housed singly were treated by SQ injection of J02 in PEG/b-MCD at 10 mkd for 12 days. NOR analysis of object memory (N=5/group) was performed. […] There was no difference in Aβ1-40 (panel B), but a decrease in Aβ1-42 (panel C).

[7] = SH-SY5Y cells, CRF-induced increase
[8] = Secondary (SH-Sy5Y, CRF stimulation)

## CCC(COC)n1nnc2c(Nc3ccc(OC)cc3C)nc(C)cc21 (stereo not shown) [Compound J03, N-(4-Methoxy-2-methylphenyl)-1-[1-(methoxymethyl)propyl]-6-methyl-1H-1,2,3-triazolo[4,5-c]pyridine-4-amine]
J20 mice [1]
  Aβ1-40: unchanged
  Aβ1-40/Aβ1-42 ratio: unchanged
  Aβ1-42: unchanged
  novel location assay: performed well
  novel object assay: performed well
  sAPPα: increased slightly
  sAPPα/sAPPβ ratio: slightly increased
  sAPPβ: unchanged
J20 mice [1]; decrease reached statistical significance
  p-tau: decreased
Solubility in DMSO
  solubility: ~10 mM (≈ 3550 µg/mL)
CRF1; Tertiary, read-out: CRF1 Ki
  Ki: 7 nM
CRF1; read-out: CRF-1 antagonist Ki
  Ki: ~7.9 nM
J20 mice [2]; all mice
  novel object preference: increased novel object preference more than 17
J20 mice [2]; both genders
  sAPPα: increase
J20 mice [2]; males
  sAPPα/sAPPβ ratio: slight increase
J20 mice [2]; not significant
  activity (total interactions): lowered
[3]; 10 mk subcutaneous (SQ) injection, J20 mice
  brain levels: low
[3]; J20, mouse, brain, two hours after oral dosing in formulation, first day of pilot study #2
  concentration at 2 h: 170 ng/g
[3]; end of pilot study #2, oral dosing
  brain levels: about 35 ng/g
SH-SY5Y cells [4]; Primary (SH-SY5Y)
  Tau %: Unchanged
SH-SY5Y cells [4]; SH-SY5Y cells, no CRF
  p-tau: decreased
CRFR2
  Ki: > 10000 nM
PAMPA
  PAMPA: 0.92
SH-SY5Y cells [5]; 50 and 100 nM CRF, FIG. 28 panel C
  p-tau/tau ratios: highly significantly decreased
SH-SY5Y cells [5]; FIG. 28 panel D, significance for J03 at 100 nM CRF
  sAPPα: trend for sAPPα to be higher
SH-SY5Y cells [5]; [7]
  p-tau after CRF exposure: reduces; also recorded: decreased
  tau after CRF exposure: reduces; also recorded: decreased
SH-SY5Y cells [5]; SH-SY5Y cells, FIG. 19
  sAPPα after CRF exposure: lower
SH-SY5Y cells [5]; [8]
  sAPPα (%): Unchanged
SH-SY5Y cells [5]; absence of CRF and presence of 100 nM CRF, FIG. 28 panel A
  tau: significantly decreased
SH-SY5Y cells [5]; presence and absence of CRF, FIG. 28 panel B
  p-tau: significantly reduced
p-tau
  stress-induced p-tau increases by cortisol: inhibit
J20 mice [6]
  Aβ1-40: no difference
  Aβ1-40/1-42 ratio: significantly increased
  Aβ1-42: decrease
  P-tau: significantly lower
  SAPP (sAPPα levels): very slightly increased
  sAPP/Aβ1-42 ratio: very slightly increased
J20 mice [6]; great individual variation
  p-tau/tau ratio: slightly higher
J20 mice [6]; largely due to one mouse
  Total tau: decreased
J20 mice [6]; single housed J20 mice
  behavior (NOR analysis of object memory): slight improvement

## CCC(COC)n1nnc2c(Nc3ccc(OC)cc3C)nc(C)nc21 (stereo not shown) [Compound J04]
Solubility in DMSO
  solubility: ~10 mM (≈ 3560 µg/mL)
CRF1; Tertiary, read-out: CRF1 Ki
  Ki: 15 nM
[3]; after SQ injection or oral delivery
  brain levels: 55 ng/g
SH-SY5Y cells [4]; Primary (SH-SY5Y)
  Tau %: Unchanged
SH-SY5Y cells [4]; SH-SY5Y cells, no CRF
  p-tau: did lower p-tau, although not significantly
  tau: did not lower
PAMPA
  PAMPA: 0.44

## CCC(COC)n1nnc2c(Nc3ccc(C)cc3C)nc(C)nc21 (stereo not shown) [Compound J05]
Solubility in DMSO
  solubility: ~10 mM (≈ 3400 µg/mL)
PAMPA
  PAMPA: 0.99

## CCC(COC)n1nnc2c(Nc3ccc(F)cc3C)nc(C)nc21 (stereo not shown) [Compound J06]
Solubility in DMSO
  solubility: ~10 mM (≈ 3440 µg/mL)
CRF1; Tertiary, read-out: CRF1 Ki
  Ki: > 1000 nM
SH-SY5Y cells [4]; Primary (SH-SY5Y)
  Tau %: Unchanged
SH-SY5Y cells [5]; [8]
  p-Tau (%): Unchanged

## CCC(COC)n1nnc2c(Nc3ccc(F)cc3F)nc(C)nc21 (stereo not shown) [Compound J07]
Solubility in DMSO
  solubility: ~10 mM (≈ 3480 µg/mL)
CRF1; Tertiary, read-out: CRF1 Ki
  Ki: > 1000 nM
PAMPA
  PAMPA: 0.72

## CCC(COC)n1nnc2c(Nc3ccc(Cl)cc3C)nc(C)nc21 (stereo not shown) [Compound J08]
Solubility in DMSO
  solubility: ~10 mM (≈ 3610 µg/mL)
CRF1; Tertiary, read-out: CRF1 Ki
  Ki: 15 nM
SH-SY5Y cells [4]; Primary (SH-SY5Y)
  Tau %: Unchanged
PAMPA
  PAMPA: 1.27
SH-SY5Y cells [5]; [8]
  sAPPα (%): Unchanged

## CCC(COC)n1nnc2c(Nc3ccc(OC)cc3OC)nc(C)nc21 (stereo not shown) [Compound J09]
Solubility in DMSO
  solubility: ~10 mM (≈ 3720 µg/mL)
SH-SY5Y cells [4]; Primary (SH-SY5Y)
  Tau %: Unchanged

## CCC(COC)n1nnc2c(N3CCCC3)nc(C)nc21 (stereo not shown) [Compound J10]
Solubility in DMSO
  solubility: ~10 mM (≈ 2900 µg/mL)
SH-SY5Y cells [4]; Primary (SH-SY5Y)
  Tau %: Unchanged
  p-Tau (%): Unchanged
